Experimental data as given in US12655107B2 (The United States of America, as represented by the …, priority 2018, dated 2026).
Read-outs that look alike come from different tables or passages of the source.

Columns and labels:
NCI-60 cell lines = assay: NCI-60 cytotoxicity, mean graph midpoint; settings: read-out: GI50 (μM) MGM; mean graph midpoint of all cell lines, 48 h, sulforhodamine B
Top1 = biological target: T1, Top1 (Homo sapiens, UniProt P11387); assay: Top1-mediated DNA cleavage assay; format: biochemical; settings: graded relative to CPT at 1 μM, Table 7
T1 sequence (P11387 1-765): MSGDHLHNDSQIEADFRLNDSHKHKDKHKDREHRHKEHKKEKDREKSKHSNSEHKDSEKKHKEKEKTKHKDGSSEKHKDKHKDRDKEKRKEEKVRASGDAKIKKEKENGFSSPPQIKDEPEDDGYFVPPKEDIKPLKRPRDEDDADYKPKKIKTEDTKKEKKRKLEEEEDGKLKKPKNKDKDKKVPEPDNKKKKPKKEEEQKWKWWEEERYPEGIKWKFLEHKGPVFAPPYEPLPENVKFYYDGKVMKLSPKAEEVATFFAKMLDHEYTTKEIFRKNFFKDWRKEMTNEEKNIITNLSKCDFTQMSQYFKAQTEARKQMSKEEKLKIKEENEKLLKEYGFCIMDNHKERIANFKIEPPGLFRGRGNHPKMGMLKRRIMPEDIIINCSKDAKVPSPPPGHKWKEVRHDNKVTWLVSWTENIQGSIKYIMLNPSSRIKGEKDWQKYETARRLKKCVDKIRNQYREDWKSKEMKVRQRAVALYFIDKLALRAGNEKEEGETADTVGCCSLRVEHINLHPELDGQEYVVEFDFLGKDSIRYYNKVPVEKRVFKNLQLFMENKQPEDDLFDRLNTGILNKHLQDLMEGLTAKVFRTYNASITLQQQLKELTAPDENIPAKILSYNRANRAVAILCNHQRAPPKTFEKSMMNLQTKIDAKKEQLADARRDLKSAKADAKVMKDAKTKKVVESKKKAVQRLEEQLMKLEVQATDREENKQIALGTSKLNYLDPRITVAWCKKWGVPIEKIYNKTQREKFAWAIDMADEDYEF

KM12 = assay: NCI-60 cytotoxicity; format: cell-based, human; settings: NCI-60 Colon Cancer, 48 h
Experimental: (§1) Cell growth inhibition (GI50 in Table 3) was calculated relative to cells without compound treatment and the time zero control.
(§2) Regarding Table 8, according to the NCI established procedures, the cells were incubated with 67 or 50 for 48 hours and stained with sulforhodamine B dye.

MDA-MB-231/ATCC = assay: NCI-60 cytotoxicity; format: cell-based, human; settings: NCI-60 Breast Cancer, 48 h
Experimental: as §1, §2

786-0 = assay: NCI-60 cytotoxicity; format: cell-based, human; settings: NCI-60 Renal Cancer, 48 h
Experimental: as §1, §2

UACC-257 = assay: NCI-60 cytotoxicity; format: cell-based, human; settings: NCI-60 Melanoma, 48 h
Experimental: as §1, §2

MALME-3M = assay: NCI-60 cytotoxicity; format: cell-based, human; settings: read-out: GI50 (μM) MALME-3M; NCI-60 Melanoma, 48 h
Experimental: as §1, §2

OVCAR-5 = assay: NCI-60 cytotoxicity; format: cell-based, human; settings: NCI-60 Ovarian Cancer, 48 h
Experimental: as §1, §2

UO-31 = assay: NCI-60 cytotoxicity; format: cell-based, human; settings: NCI-60 Renal Cancer, 48 h
Experimental: as §1, §2

SW-620 = assay: NCI-60 cytotoxicity; format: cell-based, human; settings: NCI-60 Colon Cancer, 48 h
Experimental: as §1, §2

SK-OV-3 = assay: NCI-60 cytotoxicity; format: cell-based, human; settings: NCI-60 Ovarian Cancer, 48 h
Experimental: as §1, §2

UACC-62 = assay: NCI-60 cytotoxicity; format: cell-based, human; settings: NCI-60 Melanoma, 48 h
Experimental: as §1, §2

MOLT-4 = assay: NCI-60 cytotoxicity; format: cell-based, human; settings: NCI-60 Leukemia, 48 h
Experimental: as §1, §2

SK-MEL-2 = assay: NCI-60 cytotoxicity; format: cell-based, human; settings: NCI-60 Melanoma, 48 h
Experimental: as §1, §2

SF-268 = assay: NCI-60 cytotoxicity; format: cell-based, human; settings: NCI-60 CNS Cancer, 48 h
Experimental: as §1, §2

HOP-92 = assay: NCI-60 cytotoxicity; format: cell-based, human; settings: NCI-60 Non-Small Cell Lung Cancer, 48 h
Experimental: as §1, §2

MDA-MB-468 = assay: NCI-60 cytotoxicity; format: cell-based, human; settings: NCI-60 Breast Cancer, 48 h
Experimental: as §1, §2

NCI/ADR-RES = assay: NCI-60 cytotoxicity; format: cell-based, human; settings: NCI-60 Ovarian Cancer, 48 h
Experimental: as §1, §2

DU-145 = assay: NCI-60 cytotoxicity; format: cell-based, human; settings: read-out: GI50 (μM) DU-145; NCI-60 Prostate Cancer, 48 h
Experimental: as §1, §2

MDA-MB-435 = assay: NCI-60 cytotoxicity; format: cell-based, human; settings: NCI-60 Melanoma, 48 h
Experimental: as §1, §2

SF-539 = assay: NCI-60 cytotoxicity; format: cell-based, human; settings: NCI-60 CNS Cancer, 48 h
Experimental: as §1, §2

PC-3 = assay: NCI-60 cytotoxicity; format: cell-based, human; settings: NCI-60 Prostate Cancer, 48 h
Experimental: as §1, §2

RXF 393 = assay: NCI-60 cytotoxicity; format: cell-based, human; settings: NCI-60 Renal Cancer, 48 h
Experimental: as §1, §2

DU145 = assay: MTT cytotoxicity assay, DU145; format: cell-based, human
Experimental: Cytotoxicity Assays. […] The cells were incubated with the tested compounds for 72 hours in a five-dose assay ranging from 0.01 to 100 μM concentration. After drug treatments, MTT solution was added to test the percentage growth of tumor cells.
The compounds were incubated with the cells for 72 hours in a five-dose assay ranging from 0.01 to 100 μM concentration. At the end of the incubation, the MTT solution was added to test the percentage growth of tumor cells.
For the drug treatment experiments, the cancer cells were treated with the compounds (predissolved in DMSO) at a five-dose assay ranging from 0.01 to 100 μM concentration. […] After 4 h incubation, the formazan crystal formed in the well was dissolved with […] of DMSO for optical density reading at 570 nm. The GI50 value was calculated by nonlinear regression analysis (GraphPad Prism).

[1] = biological target: T2, Top1-DNA covalent cleavage complexes in HCT116 cells (Homo sapiens, UniProt P11387); assay: Immunocomplex of enzyme to DNA (ICE) assay; format: cell-based; settings: HCT116, 25, 50 and 100 μM
T2 construct: endogenous in cells; host or cells: HCT116 (human colon cancer)

[2] = 72 h, Table 7, read-out: GI50 ± SC (μM) DU145

CNCCn1c(=O)c2cc(OC)c(OC)cc2c2ccc3cc4c(cc3c21)OCO4 [Compound 50, 2,3-dimethoxy-12-(2-(methylamino)ethyl)-[1,3]dioxolo[4′5′:4,5]benzo[1,2-c]phenanthridin-13(12H)-one]
GI50 (NCI-60 cell lines): 0.0977 µM
TOP1 inhibition (Top1): +++ (+++, between 75% and 95% activity)
GI50 (KM12): 0.238 µM
GI50 (MDA-MB-231/ATCC): 0.362 µM
GI50 (786-0): 0.0703 µM
GI50 (UACC-257): 0.122 µM
GI50 (MALME-3M): 0.174 µM
GI50 (OVCAR-5): 0.183 µM
GI50 (UO-31): 0.104 µM
GI50 (SW-620): 0.0658 µM
GI50 (SK-OV-3): 0.157 µM
GI50 (UACC-62): 0.0451 µM
GI50 (MOLT-4): 0.0234 µM
GI50 (SK-MEL-2): 0.393 µM
GI50 (SF-268): 0.0903 µM
GI50 (HOP-92): 0.184 µM
GI50 (MDA-MB-468): 0.0599 µM
GI50 (NCI/ADR-RES): 0.165 µM
GI50 (DU-145): 0.13 µM
GI50 (MDA-MB-435): 0.118 µM
GI50 (SF-539): 0.124 µM
GI50 (PC-3): 0.112 µM
GI50 (RXF 393): 0.16 µM
GI50 (DU145; [2]): 0.002 µM
GI50 (DU145; read-out: GI50 ± SD (μM) Parental cell line DU-145, drug-resistance panel): 0.002 ± 0.001 µM
induction of cellular Top1cc [1]: induced the formation of cellular TOP1 cc in a dose-dependent manner

COc1cc2c(=O)n(CCN)c3c4cc5c(cc4ccc3c2cc1OC)OCO5 [Compound 67, 12-(2-aminoethyl)-2,3-dimethoxy-[1,3]dioxolo[4′,5′:4,5]benzo[1,2-c]phenanthridin-13(12-H)-one]
GI50 (NCI-60 cell lines): 0.525 µM
TOP1 inhibition (Top1): ++ (++, between 50% and 75% activity)
GI50 (KM12): 1.1 µM
GI50 (MDA-MB-231/ATCC): 1.28 µM
GI50 (786-0): 0.464 µM
GI50 (UACC-257): 1.9 µM
GI50 (MALME-3M): 0.613 µM
GI50 (OVCAR-5): 1.2 µM
GI50 (UO-31): 0.35 µM
GI50 (SW-620): 0.243 µM
GI50 (SK-OV-3): 1.24 µM
GI50 (UACC-62): 0.278 µM
GI50 (MOLT-4): 0.0633 µM
GI50 (SK-MEL-2): 3.01 µM
GI50 (SF-268): 0.442 µM
GI50 (HOP-92): 3.56 µM
GI50 (MDA-MB-468): 0.157 µM
GI50 (NCI/ADR-RES): 1.01 µM
GI50 (DU-145): 0.527 µM
GI50 (MDA-MB-435): 0.759 µM
GI50 (SF-539): 1.06 µM
GI50 (PC-3): 0.532 µM
GI50 (RXF 393): 0.929 µM
GI50 (DU145; [2]): 0.014 ± 0.001 µM
